Assay results as given in US20160106821A1, “FUNCTIONAL GHRELIN RECEPTOR ANTAGONISM DURING PREGNANCY TO PREVENT STRESS-ASSOCIATED MENTAL ILLNESS IN OFFSPRING AND MOTHERS” (Massachusetts Institute of Technology, priority 2014, published 2016).

Key:
[1] = tested on: offspring; assay: Anhedonia (sucrose preference) in offspring after perinatal / in-womb exposure; type: in vivo
Text: FIG. 2 is a diagram depicting the protocol for analysis of babies following birth. FIG. 3 depicts the design of the study with protocols involving vehicle control, low MK0677 or high MK0677 treatment. FIG. 4 is a graph depicting the effects of perinatal exposure to MK0677 on female (dark bar) versus male (lighter gray bar) offspring. V refers to a vehicle control. H refers to high MK0677 exposure levels. FIG. 5 is a graph depicting the effects of exposure to MK0677 in the womb on offspring. The first set of experiments was designed to determine the degree of anhedonia in offspring when raised by an MK-treated mom. Anhedonia is the inability of a subject to experience pleasure from activities usually found enjoyable. A first experiment was conducted to show the effects of perinatal exposure to MK0677 on female versus male offspring. V refers to a vehicle control. H refers to high MK0677 exposure levels. […] Additionally the foster mother had no effect. […] Another study involved determining the effects of exposure to MK0677 in the womb on offspring.

[2] = tested on: post-partum mothers; assay: Depressive behaviors in post-partum mothers; type: in vivo; settings: MK-0677 treatment vs vehicle control (FIG. 1)
Text: FIG. 1 is a graph depicting depressive behaviors in post-partum mothers. […] The data is shown in Figure, a bar graph depicting depressive behaviors in post-partum mothers in response to vehicle control of MK-0677 treatment. Experiments were designed to determine the effects of elevated ghrelin activity on the fetus.

Compound: CC(C)(N)C(=O)N[C@H](COCc1ccccc1)C(=O)N1CCC2(CC1)CN(S(C)(=O)=O)c1ccccc12 [MK-0677]
- sucrose preference in offspring ([1]; offspring from mothers exposed to high MK levels (n=11) vs controls (n=12), t-test, p=0.03 (FIG. 5)): significantly lower compared to controls
- degree of anhedonia in offspring: female versus male response ([1]; perinatal exposure, high MK0677 vs vehicle, female versus male offspring (FIG. 4)): no difference was seen between the response of male and female babies
- degree of anhedonia in offspring: foster versus biological mother ([1]; perinatal exposure, high MK0677 vs vehicle, foster mother had no effect (FIG. 4)): an influence was observed for the biological mother
- preference of sucrose solution to water (vs. 50%) ([1]; pups from MK mothers, pups from vehicle-treated mothers significantly preferred sucrose (p=0.046 vs. 50%)): did not
- maternal depressive behaviors [2]: enhanced maternal depressive behaviors
